ChEMBL document CHEMBL6074626, “Recent advances in triazole synthesis via click chemistry and their pharmacological applications: A review” (Bioorg Med Chem Lett, 2024)
pIC50: −log10 of the molar value. In brackets after ≈: the same amount, converted by molar mass.

What was measured:
Bacillus subtilis = experiment: microbe, parasite or virus in culture; details: ATCC 6633, 20 h
Description: Antibacterial activity against Bacillus subtilis ATCC 6633 assessed as bacterial growth inhibition measured for 20 hrs by micro-broth dilution method

Klebsiella pneumoniae = experiment: microbe, parasite or virus in culture; details: ATCC 43816, 20 h
Description: Antimicrobial activity against Klebsiella pneumoniae ATCC 43816 assessed as reduction in bacterial growth incubated for 20 hrs by broth microdilution analysis

Staphylococcus aureus = experiment: microbe, parasite or virus in culture; details: NCTC 13616, 20 h
Description: Antibacterial activity against methicillin-resistant Staphylococcus aureus NCTC 13616 assessed as reduction in bacterial growth incubated for 20 hrs by broth micro-dilution method

Escherichia coli = experiment: microbe, parasite or virus in culture; details: ATCC 8739, 20 h
Description: Antimicrobial activity against Escherichia coli ATCC 8739 assessed as reduction in bacterial growth incubated for 20 hrs by broth microdilution analysis

Bacillus cereus = experiment: microbe, parasite or virus in culture; details: ATCC 14579
Description: Antibacterial activity against Bacillus cereus ATCC 14579 assessed as reduction in bacterial growth incubated for 18 to 24 hrs by broth microdilution method

Proteus vulgaris = experiment: microbe, parasite or virus in culture; details: ATCC 13315, 24 h
Description: Antimicrobial activity against Proteus vulgaris ATCC 13315 assessed as microbial growth inhibition incubated for 24 hrs by broth microdilution method

[1] = target: T1, Prostaglandin G/H synthase 2 (Homo sapiens, UniProt P35354); experiment: Inhibition of human recombinant COX-2
T1 sequence (P35354 whole entry): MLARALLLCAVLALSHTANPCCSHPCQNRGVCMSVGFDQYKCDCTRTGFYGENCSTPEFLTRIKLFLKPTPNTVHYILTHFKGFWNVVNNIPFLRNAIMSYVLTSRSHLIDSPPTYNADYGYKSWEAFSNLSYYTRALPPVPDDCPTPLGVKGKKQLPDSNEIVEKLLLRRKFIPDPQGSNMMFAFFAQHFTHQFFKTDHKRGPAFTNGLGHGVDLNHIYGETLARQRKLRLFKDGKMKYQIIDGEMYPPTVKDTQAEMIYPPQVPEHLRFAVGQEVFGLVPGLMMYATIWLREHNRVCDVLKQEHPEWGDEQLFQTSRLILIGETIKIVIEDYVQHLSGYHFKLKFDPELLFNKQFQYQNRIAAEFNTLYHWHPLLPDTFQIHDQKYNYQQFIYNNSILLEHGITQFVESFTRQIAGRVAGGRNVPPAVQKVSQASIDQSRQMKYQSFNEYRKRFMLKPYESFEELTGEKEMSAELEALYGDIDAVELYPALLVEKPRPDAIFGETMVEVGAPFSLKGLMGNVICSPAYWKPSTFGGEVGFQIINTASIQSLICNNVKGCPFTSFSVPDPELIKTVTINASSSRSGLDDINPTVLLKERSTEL

[2] = target: T2, Prostaglandin G/H synthase 1 (Ovis aries, UniProt P05979); experiment: Inhibition of ovine COX-1
T2 sequence (P05979 whole entry): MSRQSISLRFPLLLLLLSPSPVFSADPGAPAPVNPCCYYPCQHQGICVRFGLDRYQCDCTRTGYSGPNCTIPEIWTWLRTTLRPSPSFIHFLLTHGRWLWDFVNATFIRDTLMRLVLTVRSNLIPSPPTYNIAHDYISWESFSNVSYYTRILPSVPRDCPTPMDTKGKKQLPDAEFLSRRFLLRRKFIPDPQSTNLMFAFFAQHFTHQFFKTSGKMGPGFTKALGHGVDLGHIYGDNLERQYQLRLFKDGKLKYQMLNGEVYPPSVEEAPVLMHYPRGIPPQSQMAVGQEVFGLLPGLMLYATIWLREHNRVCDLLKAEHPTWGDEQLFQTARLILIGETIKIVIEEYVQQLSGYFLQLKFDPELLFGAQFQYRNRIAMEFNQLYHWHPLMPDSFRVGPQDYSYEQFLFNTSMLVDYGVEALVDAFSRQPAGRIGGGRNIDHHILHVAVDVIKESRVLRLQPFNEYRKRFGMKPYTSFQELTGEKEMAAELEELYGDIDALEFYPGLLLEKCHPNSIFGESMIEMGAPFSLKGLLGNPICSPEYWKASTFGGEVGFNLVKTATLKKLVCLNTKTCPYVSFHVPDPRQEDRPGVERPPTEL

[3] = Antioxidant activity assessed as DPPH radical scavenging activity incubated for 30 mins

Row | Compound | MIC (Bacillus subtilis) [µg/mL] | MIC (Klebsiella pneumoniae) [µg/mL] | MIC (Staphylococcus aureus) [µg/mL] | MIC (Escherichia coli) [µg/mL] | MIC (Bacillus cereus) [µg/mL] | MIC (Proteus vulgaris) [µg/mL] | pIC50 [1] | pIC50 [2] | pIC50 [3]
1 | CC(C)Cc1ccc(C(C)C(=O)c2ccc(OCc3cn(-c4ccc(Br)cc4)nn3)cc2O)cc1 (centres undefined) | 12 (≈ 22.5 µM) | 12 (≈ 22.5 µM) | 12 (≈ 22.5 µM) | 12 (≈ 22.5 µM) | 12 (≈ 22.5 µM) | 12 (≈ 22.5 µM) |  |  | 
2 | COc1ccc(/C=C/C(=O)c2cc(-n3cc(-c4ccccc4)nn3)ccc2O)cc1 |  |  |  |  |  |  | 7.43 | 5.13 | 
3 | COc1cc(/C=C/C(=O)c2cc(-n3cc(-c4ccccc4)nn3)ccc2O)cc(OC)c1OC |  |  |  |  |  |  | 7.43 | 5.13 | 
4 | COc1ccc(/C=C/C(=O)c2cc(-n3cc(CN4C(=O)C(=O)c5ccccc54)nn3)ccc2O)cc1OC |  |  |  |  |  |  | 7.43 | 5.13 | 
5 | COc1cc(/C=C/C(=O)c2cc(-n3cc(CN4C(=O)C(=O)c5ccccc54)nn3)ccc2O)cc(OC)c1OC |  |  |  |  |  |  | 7.43 | 5.13 | 
6 | O=C(/C=C/c1ccccc1)c1cc(-n2cc(CN3C(=O)C(=O)c4ccccc43)nn2)ccc1O |  |  |  |  |  |  | 7.43 | 5.13 | 
7 | CN(C)C(=O)c1ccc(/C=C/C(=O)c2cc(-n3cc(CN4C(=O)C(=O)c5ccccc54)nn3)ccc2O)cc1 |  |  |  |  |  |  | 7.43 | 5.13 | 
8 | CC(C)Cc1ccc(C(C)C(=O)c2ccc(OCc3cn(-c4ccc([N+](=O)[O-])cc4)nn3)cc2O)cc1 (centres undefined) | 12 (≈ 24 µM) | 12 (≈ 24 µM) | 12 (≈ 24 µM) | 12 (≈ 24 µM) | 12 (≈ 24 µM) | 12 (≈ 24 µM) |  |  | 
9 | CCCCCCCCn1cc(COc2ccc(C(=O)C(C)c3ccc(CC(C)C)cc3)c(O)c2)nn1 (centres undefined) | 12 (≈ 24.4 µM) | 12 (≈ 24.4 µM) | 12 (≈ 24.4 µM) | 12 (≈ 24.4 µM) | 12 (≈ 24.4 µM) | 12 (≈ 24.4 µM) |  |  | 
10 | CCCCc1cn(CCCOc2ccc(-c3cc(=O)c4ccccc4o3)cc2)nn1 |  |  |  |  |  |  |  |  | 4.53
11 | CC(C)Cc1ccc(C(C)C(=O)c2ccc(OCc3cn(C4CCCCC4)nn3)cc2O)cc1 (centres undefined) | 12 (≈ 26 µM) | 12 (≈ 26 µM) | 12 (≈ 26 µM) | 12 (≈ 26 µM) | 12 (≈ 26 µM) | 12 (≈ 26 µM) |  |  | 
12 | CC(C)Cc1ccc(C(C)C(=O)c2ccc(OCc3cn(-c4ccc(Cl)cc4)nn3)cc2O)cc1 (centres undefined) | 12 (≈ 24.5 µM) | 12 (≈ 24.5 µM) | 12 (≈ 24.5 µM) | 12 (≈ 24.5 µM) | 12 (≈ 24.5 µM) | 12 (≈ 24.5 µM) |  |  | 
13 | CCCCCc1ccc(-c2cn(CCCOc3ccc(-c4cc(=O)c5ccccc5o4)cc3)nn2)cc1 |  |  |  |  |  |  |  |  | 4.44
14 | CC(C)Cc1ccc(C(C)C(=O)c2ccc(OCc3cn(C4CCCC4)nn3)cc2O)cc1 (centres undefined) | 12 (≈ 26.8 µM) | 12 (≈ 26.8 µM) | 12 (≈ 26.8 µM) | 12 (≈ 26.8 µM) | 12 (≈ 26.8 µM) | 12 (≈ 26.8 µM) |  |  | 
15 | O=C(/C=C/C=C/c1ccccc1)c1cc(-n2cc(CN3C(=O)C(=O)c4ccccc43)nn2)ccc1O |  |  |  |  |  |  | 7.43 | 5.13 | 
16 | CCCCCCn1cc(COc2ccc(C(=O)C(C)c3ccc(CC(C)C)cc3)c(O)c2)nn1 (centres undefined) | 12 (≈ 25.9 µM) | 12 (≈ 25.9 µM) | 12 (≈ 25.9 µM) | 12 (≈ 25.9 µM) | 12 (≈ 25.9 µM) | 12 (≈ 25.9 µM) |  |  | 
17 | CC(C)Cc1ccc(C(C)C(=O)c2ccc(OCc3cn(-c4ccccc4Cl)nn3)cc2O)cc1 (centres undefined) | 12 (≈ 24.5 µM) | 12 (≈ 24.5 µM) | 12 (≈ 24.5 µM) | 12 (≈ 24.5 µM) | 12 (≈ 24.5 µM) | 12 (≈ 24.5 µM) |  |  | 
18 | COc1ccc(/C=C/C(=O)c2cc(-n3cc(-c4ccccc4)nn3)ccc2O)cc1OC |  |  |  |  |  |  | 7.43 | 5.13 | 
19 | O=C(/C=C/c1ccc(Cl)cc1)c1cc(-n2cc(-c3ccccc3)nn2)ccc1O |  |  |  |  |  |  | 7.43 | 5.13 | 
20 | CCCCCCCCCCCCn1cc(COc2ccc(C(=O)C(C)c3ccc(CC(C)C)cc3)c(O)c2)nn1 (centres undefined) | 12 (≈ 21.9 µM) | 12 (≈ 21.9 µM) | 12 (≈ 21.9 µM) | 12 (≈ 21.9 µM) | 12 (≈ 21.9 µM) | 12 (≈ 21.9 µM) |  |  | 
